Values quoted from earlier work as cited in patent US20130129668A1, “Diagnosis and treatment of arthritis using epigenetics” (The Regents of the University of California, priority 2011, published 2013).

Key:
FLS = FLS cultured in the presence of 5-azaC for 3 months

SMILES: Nc1ncn([C@H]2C[C@H](O)[C@@H](CO)O2)c(=O)n1 [5-azaC, 5-aza-2′-deoxycytidine]
- expression of genes implicated in RA (FLS): increased expression of several genes
- autoreactivity (T cells): enhances autoreactivity
- expression of T cell genes (IFNα, IL-4, CD70, LFA-1) (T cells): affects expression of many T cell genes
